Tests used:
[1] = target: T1, Proteasome Macropain subunit MB1 (Homo sapiens, UniProt P28074); experiment: Inhibition of human 20S proteasome beta5 subunit using Suc-LLVY-AMC as substrate by fluorescence assay
T1 sequence (P28074 whole entry): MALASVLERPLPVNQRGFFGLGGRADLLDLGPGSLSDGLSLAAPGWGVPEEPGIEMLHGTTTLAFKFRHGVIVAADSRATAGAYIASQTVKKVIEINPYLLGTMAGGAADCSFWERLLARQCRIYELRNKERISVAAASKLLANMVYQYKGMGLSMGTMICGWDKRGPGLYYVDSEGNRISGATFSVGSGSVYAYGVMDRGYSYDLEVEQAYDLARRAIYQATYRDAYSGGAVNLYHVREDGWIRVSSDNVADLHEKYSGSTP

[2] = target: T2, Proteasome Macropain subunit MB1 (Homo sapiens) (UniProt P28074)
T2 sequence (whole entry): T1 sequence (P28074 whole entry)

Row | SMILES | Ki [1] | Kin [2]
1 | COC(=O)[C@@H](NC(=O)N[C@H](C(=O)N[C@H]1CCCCNC(=O)/C=C/[C@H](Cc2cc(F)cc(F)c2)NC1=O)C(C)C)C(C)C | 952 nM | 0.0005 s⁻¹
2 | COC(=O)[C@@H](NC(=O)N[C@H](C(=O)N[C@H]1CCCCNC(=O)/C=C/[C@H](Cc2ccccc2F)NC1=O)C(C)C)C(C)C | 906 nM | 
3 | COC(=O)[C@@H](NC(=O)N[C@H](C(=O)N[C@H]1CCCCNC(=O)/C=C/[C@H](Cc2ccc(Cl)cc2)NC1=O)C(C)C)C(C)C | 1240 nM | 
4 | COC(=O)[C@@H](NC(=O)N[C@H](C(=O)N[C@H]1CCCCNC(=O)/C=C/[C@H](CC(C)C)NC1=O)C(C)C)C(C)C | 3230 nM | 
5 | COC(=O)[C@@H](NC(=O)N[C@H](C(=O)N[C@H]1CCCCNC(=O)/C=C/[C@H](Cc2ccccc2)NC1=O)C(C)C)C(C)C | 743 nM | 

The remaining lines, values ahead:

Row | Ki [1] | Kin [2] | SMILES
6 | 2350 nM |  | COC(=O)[C@@H](NC(=O)N[C@H](C(=O)N[C@H]1CCCCNC(=O)/C=C/[C@H](Cc2cccc(C)c2)NC1=O)C(C)C)C(C)C
7 | 2110 nM |  | COC(=O)[C@@H](NC(=O)N[C@H](C(=O)N[C@H]1CCCCNC(=O)/C=C/[C@H](Cc2ccccc2Cl)NC1=O)C(C)C)C(C)C
8 | 7580 nM |  | COC(=O)[C@@H](NC(=O)N[C@H](C(=O)N[C@H]1CCCCNC(=O)/C=C/[C@H](Cc2cccc(C(F)(F)F)c2)NC1=O)C(C)C)C(C)C
9 | 1140 nM |  | COC(=O)[C@@H](NC(=O)N[C@H](C(=O)N[C@H]1CCCCNC(=O)/C=C/[C@H](Cc2ccc(C)cc2)NC1=O)C(C)C)C(C)C
10 | 592 nM | 0.000486 s⁻¹ | COC(=O)[C@@H](NC(=O)N[C@H](C(=O)N[C@H]1CCCCNC(=O)/C=C/[C@H](Cc2cccc(F)c2)NC1=O)C(C)C)C(C)C
11 | 963 nM |  | COC(=O)[C@@H](NC(=O)N[C@H](C(=O)N[C@H]1CCCCNC(=O)/C=C/[C@H](Cc2cccc(Cl)c2)NC1=O)C(C)C)C(C)C
